These substances were tested on HuM2e antibody 23K12.
Type: binding, human

Going from “487 (SLLTNVETPIRNEWGCRCNDSSD; epitope peptide) [compound 487]” to “362 (CSLLTECGMCLLTEV; epitope peptide) [compound 362]”, the “Signal (peptides that bind to 23K21 and 8I10)” value rises from 1142 to 1517.

Going from “468 (SCLCECGSLLTEC; epitope peptide) [compound 468]” to “308 (MSLCTEVGMCLCTCV; epitope peptide) [compound 308]”, the “Signal (peptides that bind to 23K21 and 8I10)” value rises from 1244 to 1902.

Going from “540 (SLLTEHETPIRNEWGCRCNDSSD; epitope peptide) [compound 540]” to “322 (SKLTEVETPIRNEWGCRCNDSSD; epitope peptide) [compound 322]”, the “Signal (peptides that bind to 23K21 and 8I10)” value rises from 942 to 1784.

Compared with “589 (CSLLTECGMSCLTEV; epitope peptide) [compound 589]”, “471 (SLLTEEETPIRNEWGCRCNDSSD; epitope peptide) [compound 471]” is higher in “Signal (peptides that bind to 23K21 and 8I10)” value: 846 for the first, 1220 for the second.

Going from “335 (CSCLCEVGCSLLTEC; epitope peptide) [compound 335]” to “498 (SLLTEMETPIRNEWGCRCNDSSD; epitope peptide) [compound 498]”, the “Signal (peptides that bind to 23K21 and 8I10)” value falls from 1677 to 1076.

Going from “505 (SLLTEKETPIRNEWGCRCNDSSD; epitope peptide) [compound 505]” to “306 (CSLLTECGMSLLTCV; epitope peptide) [compound 306]”, the “Signal (peptides that bind to 23K21 and 8I10)” value rises from 1055 to 1918.

Going from “367 (SLCTEVGSLLTEC; epitope peptide) [compound 367]” to “523 (SLLTEFETPIRNEWGCRCNDSSD; epitope peptide) [compound 523]”, the “Signal (peptides that bind to 23K21 and 8I10)” value falls from 1495 to 1009.

First: 655 (SLYTEVETPIRNEWGCRCNDSSD; epitope peptide) [compound 655]
Second: 494 (SLLTEQETPIRNEWGCRCNDSSD; epitope peptide) [compound 494]
The “Signal (peptides that bind to 23K21 and 8I10)” value of the first is lower: 753 for the first, 1102 for the second.

Compared with “323 (SLCTEVGSLLTCV; epitope peptide) [compound 323]”, “469 (MSLLTECGMSLLTEC; epitope peptide) [compound 469]” is lower in “Signal (peptides that bind to 23K21 and 8I10)” value: 1781 for the first, 1236 for the second.

Compared with “391 (SNLTEVETPIRNEWGCRCNDSSD; epitope peptide) [compound 391]”, “455 (CLCTCVGSLLTEC; epitope peptide) [compound 455]” is lower in “Signal (peptides that bind to 23K21 and 8I10)” value: 1345 for the first, 1303 for the second.

First: 485 (CSLLTECGMCLCTCV; epitope peptide) [compound 485]
Second: 361 (SCLCECGCSLLTEC; epitope peptide) [compound 361]
The “Signal (peptides that bind to 23K21 and 8I10)” value of the first is lower: 1168 for the first, 1520 for the second.

First: 475 (MSLLTECGMSLCTEV; epitope peptide) [compound 475]
Second: 521 (SLLTAVETPIRNEWGCRCNDSSD; epitope peptide) [compound 521]
The “Signal (peptides that bind to 23K21 and 8I10)” value of the first is higher: 1212 for the first, 1012 for the second.

Compared with “554 (CLLTEVGSLLTCV; epitope peptide) [compound 554]”, “340 (MSCLCECGCSLLTEC; epitope peptide) [compound 340]” is higher in “Signal (peptides that bind to 23K21 and 8I10)” value: 902 for the first, 1652 for the second.

First: 474 (SLLTECETPIRNEWGCRCNDSSD; epitope peptide) [compound 474]
Second: 310 (MSCLCECGMSLLTEC; epitope peptide) [compound 310]
The “Signal (peptides that bind to 23K21 and 8I10)” value of the first is lower: 1214 for the first, 1887 for the second.

Going from “376 (CSLLTECGMSLLTEC; epitope peptide) [compound 376]” to “561 (SCLTEVETPIRNEWGCRCNDSSD; epitope peptide) [compound 561]”, the “Signal (peptides that bind to 23K21 and 8I10)” value falls from 1445 to 892.

Compared with “332 (SALTEVETPIRNEWGCRCNDSSD; epitope peptide) [compound 332]”, “497 (SLLTECGSCLCEC; epitope peptide) [compound 497]” is lower in “Signal (peptides that bind to 23K21 and 8I10)” value: 1689 for the first, 1077 for the second.

The substances below were run on anti-M2 human monoclonal antibody Z3G1.
Type: binding

Going from “1252 (MELLTEVETPIRNEWGCRCN; epitope peptide) [compound 1252]” to “1381 (CLLTEVETPCRNEWG; epitope peptide) [compound 1381]”, the “Signal (peptides that bind to Z3G1)” value falls from 2679 to 2074.

Compared with “1480 (CEVETPIRNELLTEVETPICEVETPIRNE; epitope peptide; MISC_FEATURE (1)..(1): C is an attachment site for a CLIP; MISC_FEATURE (10)..(10): E is an attachment site for a CLIP; MISC_FEATURE (11)..(11): L is an attachment site for a CLIP; MISC_FEATURE (29)..(29): E is an attachment site for a CLIP) [compound 1480]”, “1250 (MALLTEVETPIRNEWGCRCN; epitope peptide) [compound 1250]” is higher in “Signal (peptides that bind to Z3G1)” value: 1394 for the first, 2604 for the second.

Going from “1391 (SLLCEVETPICNEWG; epitope peptide) [compound 1391]” to “1280 (MSLLDEVETPIRNEWGCRCN; epitope peptide) [compound 1280]”, the “Signal (peptides that bind to Z3G1)” value rises from 2536 to 2763.

Compared with “1388 (SLLCEVETPIRNECG; epitope peptide) [compound 1388]”, “1482 (CETPIRNEWGLLTEVETPICEVETPIRNE; epitope peptide; MISC_FEATURE (1)..(1): C is an attachment site for a CLIP; MISC_FEATURE (10)..(10): G is an attachment site for a CLIP; MISC_FEATURE (11)..(11): L is an attachment site for a CLIP; MISC_FEATURE (29)..(29): E is an attachment site for a CLIP) [compound 1482]” is lower in “Signal (peptides that bind to Z3G1)” value: 2107 for the first, 1648 for the second.

Compared with “1285 (MSLLIEVETPIRNEWGCRCN; epitope peptide) [compound 1285]”, “1253 (MFLLTEVETPIRNEWGCRCN; epitope peptide) [compound 1253]” is lower in “Signal (peptides that bind to Z3G1)” value: 2371 for the first, 1707 for the second.

Going from “1267 (MSILTEVETPIRNEWGCRCN; epitope peptide) [compound 1267]” to “1311 (MSLLTEVYTPIRNEWGCRCN; epitope peptide) [compound 1311]”, the “Signal (peptides that bind to Z3G1)” value falls from 2582 to 2181.

First: 1371 (SLLCEVETPIRNE; epitope peptide) [compound 1371]
Second: 1295 (MSLLWEVETPIRNEWGCRCN; epitope peptide) [compound 1295]
The “Signal (peptides that bind to Z3G1)” value of the first is lower: 2511 for the first, 2531 for the second.

Going from “1394 (SLLCEVECPIRNEWG; epitope peptide) [compound 1394]” to “1347 (MSLLCEVGMSLLTCV; epitope peptide) [compound 1347]”, the “Signal (peptides that bind to Z3G1)” value rises from 2529 to 2784.

Compared with “1263 (MRLLTEVETPIRNEWGCRCN; epitope peptide) [compound 1263]”, “1313 (CMSLLCEVETPIRNE; epitope peptide) [compound 1313]” is higher in “Signal (peptides that bind to Z3G1)” value: 2519 for the first, 2582 for the second.

First: 1314 (CMSLCTEVETPIRNE; epitope peptide) [compound 1314]
Second: 1351 (MSLLCEVGMSCLCEC; epitope peptide) [compound 1351]
The “Signal (peptides that bind to Z3G1)” value of the first is lower: 1705 for the first, 2492 for the second.

Compared with “1348 (MSLCTEVGCSCLCEV; epitope peptide) [compound 1348]”, “1481 (CVETPIRNEWLLTEVETPICEVETPIRNE; epitope peptide; MISC_FEATURE (1)..(1): C is an attachment site for a CLIP; MISC_FEATURE (10)..(10): W is an attachment site for a CLIP; MISC_FEATURE (11)..(11): L is an attachment site for a CLIP; MISC_FEATURE (29)..(29): E is an attachment site for a CLIP) [compound 1481]” is lower in “Signal (peptides that bind to Z3G1)” value: 2001 for the first, 1592 for the second.

Going from “1349 (MSLLCEVGCSCLCEV; epitope peptide) [compound 1349]” to “1357 (CLLTEVETCIRNE; epitope peptide) [compound 1357]”, the “Signal (peptides that bind to Z3G1)” value falls from 2586 to 1661.

First: 1329 (MSLLCEVETCIRNE; epitope peptide) [compound 1329]
Second: 1444 (CEVETPIRNELLTEVETPICLTEVETPIR; epitope peptide; MISC_FEATURE (1)..(1): C is an attachment site for a CLIP; MISC_FEATURE (10)..(10): E is an attachment site for a CLIP; MISC_FEATURE (11)..(11): L is an attachment site for a CLIP; MISC_FEATURE (29)..(29): R is an attachment site for a CLIP) [compound 1444]
The “Signal (peptides that bind to Z3G1)” value of the first is higher: 2589 for the first, 2000 for the second.

Compared with “1557 (CLCTCVGSLLCEV; epitope peptide) [compound 1557]”, “1574 (RLLTEVETPIRNEWGCRCNDSSD; epitope peptide) [compound 1574]” is lower in “Signal (peptides that show specific binding to Z3G1)” value: 2246 for the first, 1338 for the second.

Going from “1573 (QLLTEVETPIRNEWGCRCNDSSD; epitope peptide) [compound 1573]” to “1565 (FLLTEVETPIRNEWGCRCNDSSD; epitope peptide) [compound 1565]”, the “Signal (peptides that show specific binding to Z3G1)” value falls from 1627 to 1018.

For “1515 (CETPIRNEWGLLTEVETPICETPIRNEWG; epitope peptide; MISC_FEATURE (1)..(1): C is an attachment site for a CLIP; MISC_FEATURE (10)..(10): G is an attachment site for a CLIP; MISC_FEATURE (11)..(11): L is an attachment site for a CLIP; MISC_FEATURE (29)..(29): G is an attachment site for a CLIP) [compound 1515]”, the “Signal (peptides that show specific binding to Z3G1)” value was 2427.

In the case of “MSLLTEVETPIRNEWGCRCN (epitope peptide) [SEQ ID NO: 1149]”, the “Binding to Z3G1 (in words)” value was “very best specific binder”.
